# Measurements taken from US20260242373A1, “NBD1 MODULATORS AND METHODS OF USING THE SAME” (Sionna Therapeutics Inc., priority 2023, published 2026).
# Test system: NBD1
# Assay: Aggregation analysis of NBD1 thermal stability by differential static light scattering (DSLS)
# Format: binding, Human
# Conditions: 100 μM compound; ΔTagg versus DMSO control
# Protocol: Purified recombinant NBD1 was produced using previously described methods (A. Schmidt, J. L. Mendoza, P. J. Thomas (2011) Biochemical and Biophysical Approaches to Probe CFTR Structure (365-376) M. D. Amaral, K. Kunzelmann (eds.), Cystic Fibrosis, Methods in Molecular Biology 741, Springer Science+Business Media). The effect of test compounds on thermal stability of NBD1 was evaluated by differential static light scattering (DSLS) using the Harbinger Stargazer-384 instrument (Epiphyte Three, Toronto, Canada). Test compounds were dissolved and diluted to desired concentrations in 100% DMSO. The compounds or DMSO controls (100 nL) were stamped into wells of a […] low volume optical plate (Corning Inc., Corning, NY) using the Echo 555 acoustic liquid handler (Labcyte Inc., San Jose, CA).
# NBD1 protein was diluted to 0.2 mg/ml in S200 buffer (50 mM Tris-HCl, 150 mM NaCl, 5 mM MgCl2, 2 mM ATP, 2 mM DTT, pH7.6) containing 1% glycerol. 10 uL of protein solution was aliquoted into the 384-well plate harboring the test compounds and 10 uL mineral oil was overlayed onto the protein solution, using the epMotion robotic liquid handler (Eppendorf North America, Hauppauge, NY). After placing into the Stargazer instrument, the plate was heated at 1° C. per minute to 70° C. Images were captured from 25° C. to 70° C. every 0.5° C. At the end of the experiment run, instrument software integrated image files and analyzed data automatically. A […] regression curve was generated for each well, representing the increase in light scattering over time. A temperature of aggregation (Tagg) was calculated based on the inflection point of the curve. To better compare data across experiments the average Tagg for DMSO control wells was calculated and subtracted from values for wells containing compounds to obtain a “ΔTagg” value. These ΔTagg values reflect stabilizing efficacy of the compounds.
row,SMILES,DSLS NBD1/3D Human Stability delta-T (° C.) @ 100 (μM)
1,"COc1cc(C(C)c2cccc(CCC(=O)O)c2F)nn1-c1cc(Oc2c(F)cc3[nH]ccc3c2F)ccc1F (centres unmarked) [Compound 50, 3-(3-(1-(1-(5-((4,6-difluoro-1H-indol-5-yl)oxy)-2-fluorophenyl)-5-methoxy-1H-pyrazol-3-yl)ethyl)-2-fluorophenyl)propanoic acid]",B (B: 4-8° C.)
2,"OC(c1c[nH]c(-c2cccc(Oc3ccc4[nH]ccc4c3)c2)n1)c1nccs1 (centres unmarked) [Compound 21, (2-(3-((1H-indol-5-yl)oxy)phenyl)-1H-imidazol-4-yl)(thiazol-2-yl)methanol]",B (B: 4-8° C.)
3,"O[C@@H](Cc1cncs1)c1c[nH]c(-c2cccc(Oc3ccc4[nH]ccc4c3)c2)n1 (single isomer, unassigned) [Compound 24]",C (C: ≤4° C.)
4,"Cn1cc(Cc2nnc(-c3cccc(Oc4ccc5[nH]ccc5c4)c3)[nH]2)cn1 [Compound 25, 5-(3-(5-((1-methyl-1H-pyrazol-4-yl)methyl)-4H-1,2,4-triazol-3-yl)phenoxy)-1H-indole]",C (C: ≤4° C.)
5,"Cc1ncc(C(O)c2nnc(-c3cccc(Oc4ccc5[nH]cnc5c4)c3)[nH]2)s1 (centres unmarked) [Compound 35, (5-(3-((1H-benzo[d]imidazol-5-yl)oxy)phenyl)-4H-1,2,4-triazol-3-yl)(2-methylthiazol-5-yl)methanol]",C (C: ≤4° C.)
6,"Cc1ncc(C(O)c2nnc(-c3cccc(Oc4ccc5[nH]ccc5c4CO)c3)[nH]2)s1 (centres unmarked) [Compound 37, (5-(3-((4-(hydroxymethyl)-1H-indol-5-yl)oxy)phenyl)-4H-1,2,4-triazol-3-yl)(2-methylthiazol-5-yl)methanol]",B (B: 4-8° C.)
7,"Cc1nc(Cc2nnc(-c3cccc(Oc4ccc5[nH]ccc5c4)c3)[nH]2)cs1 [Compound 17, 4-((5-(3-((1H-indol-5-yl)oxy)phenyl)-4H-1,2,4-triazol-3-yl)methyl)-2-methylthiazole]",C (C: ≤4° C.)
8,"Cn1cc(Cc2nnc(-c3cccc(Oc4ccc5[nH]ccc5n4)c3)[nH]2)cn1 [Compound 31, 5-(3-(5-((1-methyl-1H-pyrazol-4-yl)methyl)-4H-1,2,4-triazol-3-yl)phenoxy)-1H-pyrrolo[3,2-b]pyridine]",C (C: ≤4° C.)
9,"Cc1ncc(C(N)c2nnc(-c3cccc(Oc4ccc5[nH]cnc5c4)c3)[nH]2)s1 (centres unmarked) [Compound 36, (5-(3-((1H-benzo[d]imidazol-5-yl)oxy)phenyl)-4H-1,2,4-triazol-3-yl)(2-methylthiazol-5-yl)methanamine]",C (C: ≤4° C.)
10,"CC(c1noc(-c2cc(Oc3c(F)cc4[nH]ccc4c3F)ccc2F)n1)c1cccc(CCC(=O)O)c1F (centres unmarked) [Compound 53, 3-(3-(1-(5-(5-((4,6-difluoro-1H-indol-5-yl)oxy)-2-fluorophenyl)-1,2,4-oxadiazol-3-yl)ethyl)-2-fluorophenyl)propanoic acid]",B (B: 4-8° C.)
11,"CC(c1cccc(CCC(=O)O)c1F)c1nc(-c2cc(Oc3c(F)cc4[nH]ccc4c3F)ccc2F)n2ccccc12 (centres unmarked) [Compound 46, 3-(3-(1-(3-(5-((4,6-difluoro-1H-indol-5-yl)oxy)-2-fluorophenyl)imidazo[1,5-a]pyridin-1-yl)ethyl)-2-fluorophenyl)propanoic acid]",C (C: ≤4° C.)
12,"O=C(O)CCc1cccc(Cc2cc(N3CCCC3=O)n(-c3cc(Oc4c(F)cc5[nH]ccc5c4F)ccc3F)n2)c1 [Compound 58, 3-[3-[[1-[5-[(4,6-difluoro-1H-indol-5-yl)oxy]-2-fluoro-phenyl]-5-(2-oxopyrrolidin-1-yl)pyrazol-3-yl]methyl]phenyl]propanoic acid]",C (C: ≤4° C.)
13,"Cc1cnc(C(O)c2c[nH]c(-c3cccc(Oc4ccc5[nH]ccc5c4)c3)n2)s1 (centres unmarked) [Compound 22, (2-(3-((1H-indol-5-yl)oxy)phenyl)-1H-imidazol-4-yl)(5-methylthiazol-2-yl)methanol]",B (B: 4-8° C.)
14,"Cc1c(Oc2cccc(-c3nn(Cc4cccc(CCC(=O)O)c4)cc3F)c2)c(F)cc2[nH]ccc12 [Compound 54, 3-(3-((4-fluoro-3-(3-((6-fluoro-4-methyl-1H-indol-5-yl)oxy)phenyl)-1H-pyrazol-1-yl)methyl)phenyl)propanoic acid]",B (B: 4-8° C.)
15,"CSc1cc(C(C)c2cccc(CCC(=O)O)c2F)nn1-c1cc(Oc2c(F)cc3[nH]ccc3c2F)ccc1F (centres unmarked) [Compound 52, 3-(3-(1-(1-(5-((4,6-difluoro-1H-indol-5-yl)oxy)-2-fluorophenyl)-5-(methylthio)-1H-pyrazol-3-yl)ethyl)-2-fluorophenyl)propanoic acid]",C (C: ≤4° C.)
16,"Cn1cc(C(O)c2cnc(-c3cccc(Oc4ccc5[nH]ccc5n4)c3)[nH]2)cn1 (centres unmarked) [Compound 32, (2-(3-((1H-pyrrolo[3,2-b]pyridin-5-yl)oxy)phenyl)-1H-imidazol-5-yl)(1-methyl-1H-pyrazol-4-yl)methanol]",C (C: ≤4° C.)
17,"Cn1nccc1C(O)c1cnc(-c2cccc(Oc3ccc4[nH]ccc4n3)c2)[nH]1 (centres unmarked) [Compound 33, (2-(3-((1H-pyrrolo[3,2-b]pyridin-5-yl)oxy)phenyl)-1H-imidazol-5-yl)(1-methyl-1H-pyrazol-5-yl)methanol]",C (C: ≤4° C.)
18,"Cc1cc(Cc2nnc(-c3cccc(Oc4cc5cc[nH]c5cn4)c3)[nH]2)cs1 [Compound 9, 5-(3-(5-((5-methylthiophen-3-yl)methyl)-4H-1,2,4-triazol-3-yl)phenoxy)-1H-pyrrolo[2,3-c]pyridine]",C (C: ≤4° C.)
19,"Cc1ccc(Cc2nnc(-c3cccc(Oc4cc5cc[nH]c5cn4)c3)[nH]2)s1 [Compound 8, 5-(3-(5-((5-methylthiophen-2-yl)methyl)-4H-1,2,4-triazol-3-yl)phenoxy)-1H-pyrrolo[2,3-c]pyridine]",C (C: ≤4° C.)
20,"Cc1ncc(C(O)c2nnc(-c3cccc(Oc4ccc5[nH]ccc5c4C(N)=O)c3)[nH]2)s1 (centres unmarked) [Compound 39, 5-(3-(5-(hydroxy(2-methylthiazol-5-yl)methyl)-4H-1,2,4-triazol-3-yl)phenoxy)-1H-indole-4-carboxamide]",B (B: 4-8° C.)
21,"Cc1ncc(C(O)c2nnc(-c3cccc(Oc4ccc5[nH]ccc5c4C(=O)O)c3)[nH]2)s1 (centres unmarked) [Compound 38, 5-(3-(5-(hydroxy(2-methylthiazol-5-yl)methyl)-4H-1,2,4-triazol-3-yl)phenoxy)-1H-indole-4-carboxylic acid]",C (C: ≤4° C.)
22,"C[C@H](c1nc(-c2cc(Oc3c(F)cc4[nH]ccc4c3F)ccc2F)n(C)n1)c1ccc(CCC(=O)O)s1 (single isomer, unassigned) [Compound 45]",A (A: T ≥8° C.)
23,Cc1c(Oc2ccc(F)c(-c3ccn(Cc4cnc(CCC(N)=O)s4)n3)c2)c(F)cc2[nH]ccc12 [Compound 6],C (C: ≤4° C.)
